Reference: ChEMBL document CHEMBL5370585, “Exploration and Biological Evaluation of 1,3-Diamino-7H-pyrrol[3,2-f]quinazoline Derivatives as Dihydrofolate Reductase Inhibitors” (J Med Chem, 2023)
Converted amounts (≈) assume the structure as drawn. The source made the active and inactive calls. The rule behind the calls is not given here.

How the values were obtained:
[1] = tested on: Staphylococcus aureus; assay: Antibacterial activity against Staphylococcus aureus ATCC 29213 incubated for 16 to 18 hrs by CLSI based broth dilution method; assay type: functional; conditions: time 16-18 hrs
[2] = tested on: Staphylococcus aureus; assay: Antibacterial activity against methicillin-resistant Staphylococcus aureus ATCC 43300 incubated for 16 to 18 hrs by CLSI based broth dilution method; assay type: functional; conditions: time 16-18 hrs
[3] = tested on: Staphylococcus epidermidis; assay: Antibacterial activity against Staphylococcus epidermidis ATCC 12228 incubated for 16 to 18 hrs by CLSI based broth dilution method; assay type: functional; conditions: time 16-18 hrs
[4] = tested on: Acinetobacter baumannii; assay: Antibacterial activity against Acinetobacter baumannii ATCC 19606 incubated for 16 to 18 hrs by CLSI based broth dilution method; assay type: functional; conditions: time 16-18 hrs
[5] = tested on: Enterococcus faecalis; assay: Antibacterial activity against Enterococcus faecalis ATCC 29212 incubated for 16 to 18 hrs by CLSI based broth dilution method; assay type: functional; conditions: time 16-18 hrs
[6] = tested on: Escherichia coli; assay: Antibacterial activity against Escherichia coli ATCC 25922 incubated for 16 to 18 hrs by CLSI based broth dilution method; assay type: functional; conditions: time 16-18 hrs
[7] = tested on: Escherichia coli; assay: Antibacterial activity against Escherichia coli ATCC 25922 assessed as inhibition of bacterial growth at upto 8 times MIC measured upto 28 hrs by time kill curve assay; assay type: functional, organism-based
[8] = tested on: Staphylococcus aureus; assay: Antibacterial activity against methicillin-resistant Staphylococcus aureus ATCC 43300 assessed as inhibition of bacterial growth at upto 8 times MIC measured upto 28 hrs by time kill curve assay; assay type: functional, organism-based
[9] = tested on: Staphylococcus aureus; assay: Antibacterial activity against Staphylococcus aureus ATCC 29213 incubated for 16 to 18 hrs in absence of human plasma by CLSI based broth dilution method; assay type: functional; conditions: time 16-18 hrs
[10] = tested on: Staphylococcus aureus; assay: Antibacterial activity against Staphylococcus aureus ATCC 29213 incubated for 16 to 18 hrs in presence of human plasma by CLSI based broth dilution method; assay type: functional; conditions: time 16-18 hrs
[11] = tested on: Staphylococcus aureus; assay: Antibacterial activity against methicillin-resistant Staphylococcus aureus ATCC 43300 incubated for 16 to 18 hrs in absence of human plasma by CLSI based broth dilution method; assay type: functional; conditions: time 16-18 hrs
[12] = tested on: Staphylococcus aureus; assay: Antibacterial activity against methicillin-resistant Staphylococcus aureus ATCC 43300 incubated for 16 to 18 hrs in presence of human plasma by CLSI based broth dilution method; assay type: functional; conditions: time 16-18 hrs
[13] = tested on: Escherichia coli; assay: Antibacterial activity against Escherichia coli ATCC 25922 incubated for 16 to 18 hrs in absence of human plasma by CLSI based broth dilution method; assay type: functional; conditions: time 16-18 hrs
[14] = tested on: Escherichia coli; assay: Antibacterial activity against Escherichia coli ATCC 25922 incubated for 16 to 18 hrs in presence of human plasma by CLSI based broth dilution method; assay type: functional; conditions: time 16-18 hrs
[15] = tested on: Staphylococcus aureus; assay: Drug resistance against methicillin-resistant Staphylococcus aureus ATCC 43300 assessed as increase in MIC measured after 10 passaging for 24 hrs; assay type: functional, organism-based
[16] = tested on: MCF7; assay: Cytotoxicity against human MCF7 cells measured after 72 hrs by MTT assay; assay type: functional, cell-based; conditions: MCF7, 72 h
[17] = tested on: HGC-27; assay: Cytotoxicity against human HGC-27 cells measured after 72 hrs by MTT assay; assay type: functional, cell-based; conditions: HGC-27, 72 h
[18] = tested on: HCT-116; assay: Cytotoxicity against human HCT-116 cells measured after 72 hrs by MTT assay; assay type: functional, cell-based; conditions: HCT-116, 72 h
[19] = tested on: HepG2; assay: Cytotoxicity against human HepG2 cells measured after 72 hrs by MTT assay; assay type: functional, cell-based; conditions: HepG2, 72 h
[20] = Toxicity in ICR mouse assessed as median lethal dose administered as single IP dose measured upto 8 days; conditions: in vivo, time < 8 day
[21] = Toxicity in ip dosed ICR mouse assessed as animal death at high dose measured upto 8 days; assay type: organism-based; conditions: in vivo, 192 h, time < 8 day
[22] = Metabolic stability in mouse liver microsomes assessed as half life at 1 uM measured upto 60 mins in presence of NADPH by LC-MS/MS analysis; assay type: ADME, Microsome
[23] = Metabolic stability in mouse liver microsomes assessed as intrinsic clearance at 1 uM measured upto 60 mins in presence of NADPH by LC-MS/MS analysis; assay type: ADME, Microsome; conditions: read-out: CLH
[24] = Metabolic stability in mouse liver microsomes assessed as hepatic clearance at 1 uM measured upto 60 mins in presence of NADPH by LC-MS/MS analysis; assay type: ADME, Microsome; conditions: 1 h
[25] = Stability in mouse plasma assessed as parent compound remaining at 1 ug/ml measured after 10 mins by LC-MS/MS analysis; assay type: ADME, cell-free; conditions: at 1 µg/mL, read-out: Stability
[26] = Stability in mouse plasma assessed as parent compound remaining at 1 ug/ml measured after 20 mins by LC-MS/MS analysis; assay type: ADME, cell-free; conditions: at 1 µg/mL, read-out: Stability
[27] = Stability in mouse plasma assessed as parent compound remaining at 1 ug/ml measured after 30 mins by LC-MS/MS analysis; assay type: ADME, cell-free; conditions: at 1 µg/mL, read-out: Stability
[28] = Stability in mouse plasma assessed as parent compound remaining at 1 ug/ml measured after 45 mins by LC-MS/MS analysis; assay type: ADME, cell-free; conditions: at 1 µg/mL, read-out: Stability
[29] = Stability in mouse plasma assessed as parent compound remaining at 1 ug/ml measured after 60 mins by LC-MS/MS analysis; assay type: ADME, cell-free; conditions: at 1 µg/mL, read-out: Stability
[30] = Stability in mouse plasma assessed as parent compound remaining at 1 ug/ml measured after 120 mins by LC-MS/MS analysis; assay type: ADME, cell-free; conditions: at 1 µg/mL, read-out: Stability
[31] = Stability in mouse plasma assessed as parent compound remaining at 1 ug/ml measured after 240 mins by LC-MS/MS analysis; assay type: ADME, cell-free; conditions: at 1 µg/mL, read-out: Stability
[32] = Stability in mouse plasma assessed as parent compound remaining at 1 ug/ml measured after 1440 mins by LC-MS/MS analysis; assay type: ADME, cell-free; conditions: at 1 µg/mL, read-out: Stability
[33] = Stability in mouse plasma assessed as parent compound remaining at 5 ug/ml measured after 10 mins by LC-MS/MS analysis; assay type: ADME, cell-free; conditions: at 5 µg/mL, read-out: Stability
[34] = Stability in mouse plasma assessed as parent compound remaining at 5 ug/ml measured after 20 mins by LC-MS/MS analysis; assay type: ADME, cell-free; conditions: at 5 µg/mL, read-out: Stability
[35] = Stability in mouse plasma assessed as parent compound remaining at 5 ug/ml measured after 30 mins by LC-MS/MS analysis; assay type: ADME, cell-free; conditions: at 5 µg/mL, read-out: Stability
[36] = Stability in mouse plasma assessed as parent compound remaining at 5 ug/ml measured after 45 mins by LC-MS/MS analysis; assay type: ADME, cell-free; conditions: at 5 µg/mL, read-out: Stability
[37] = Stability in mouse plasma assessed as parent compound remaining at 5 ug/ml measured after 60 mins by LC-MS/MS analysis; assay type: ADME, cell-free; conditions: at 5 µg/mL, read-out: Stability
[38] = Stability in mouse plasma assessed as parent compound remaining at 5 ug/ml measured after 120 mins by LC-MS/MS analysis; assay type: ADME, cell-free; conditions: at 5 µg/mL, read-out: Stability
[39] = Stability in mouse plasma assessed as parent compound remaining at 5 ug/ml measured after 240 mins by LC-MS/MS analysis; assay type: ADME, cell-free; conditions: at 5 µg/mL, read-out: Stability
[40] = Stability in mouse plasma assessed as parent compound remaining at 5 ug/ml measured after 1440 mins by LC-MS/MS analysis; assay type: ADME, cell-free; conditions: at 5 µg/mL, read-out: Stability
[41] = Half life in ICR mouse at 10 mg/kg, ip measured after 5 to 24 hrs post administration by LC-MS/MS analysis; assay type: ADME, organism-based; conditions: in vivo, time 5-24 hrs
[42] = AUC (0 to infinity) in ICR mouse at 10 mg/kg, ip measured after 5 to 24 hrs post administration by LC-MS/MS analysis; assay type: ADME, organism-based; parameters: time upper 24 hrs, dose 10 mg/kg, time lower 5 hrs, route ip; conditions: in vivo
[43] = AUC (0 to t) in ICR mouse at 10 mg/kg, ip measured after 5 to 24 hrs post administration by LC-MS/MS analysis; assay type: ADME, organism-based; parameters: time 5-24 hrs, dose 10 mg/kg, route ip; conditions: in vivo
[44] = tested on: Staphylococcus aureus; assay: Antibacterial activity against Methicillin-resistant Staphylococcus aureus ATCC 43300 infected in ip dosed ICR mouse thigh infection model assessed as reduction in bacterial growth measured after 24 hrs post-treatment; assay type: functional, organism-based; conditions: dose lower 7.5 mg/kg, dose upper […]
[45] = tested on: Staphylococcus aureus; assay: Antibacterial activity against Methicillin-resistant Staphylococcus aureus ATCC 43300 infected in ICR mouse thigh infection model assessed as survival rate at 7.5 mg/kg, ip measured after 24 hrs post-treatment relative to control; assay type: functional
[46] = tested on: Staphylococcus aureus; assay: Antibacterial activity against Methicillin-resistant Staphylococcus aureus ATCC 43300 infected in ICR mouse thigh infection model assessed as survival rate at 15 mg/kg, ip measured after 24 hrs post-treatment relative to control; assay type: functional

SMILES: Nc1nc(N)c2c(ccc3c2ccn3Cc2ccc3scnc3c2)n1
- MIC [1]: 0.125 µg/mL (≈ 0.361 µM)
- MIC [2]: 0.016 µg/mL (≈ 0.0462 µM)
- MIC [3]: ≤ 0.004 µg/mL
- MIC [4]: 1 µg/mL (≈ 2.89 µM)
- MIC [5]: 0.03 µg/mL (≈ 0.0866 µM)
- MIC [6]: 0.06 µg/mL (≈ 0.173 µM)
- Activity [7]: Active
- Activity [8]: Active
- MIC [9]: 0.03 µg/mL (≈ 0.0866 µM)
- MIC [10]: 0.5 µg/mL
- MIC [11]: 0.016 µg/mL (≈ 0.0462 µM)
- MIC [12]: 0.5 µg/mL
- MIC [13]: 0.06 µg/mL (≈ 0.173 µM)
- MIC [14]: 0.125 µg/mL
- Activity [15]: Active
- IC50 [16]: 580 nM
- IC50 [17]: 1 nM
- IC50 [18]: 5 nM
- IC50 [19]: 120 nM
- LD50 at 192 h [20]: 283 mg/kg
- Activity [21]: Toxic
- half-life at 1 µM [22]: 0.203 h
- microsomal CLint at 1 µM [23]: 114 µL/min/mg
- CLH [24]: 74.9 mL/min/kg
- remaining at 10 min, 1 ug/ml [25]: 96.2%
- remaining at 20 min, 1 ug/ml [26]: 94.7%
- remaining at 0.5 h, 1 ug/ml [27]: 93.8%
- remaining at 0.75 h, 1 ug/ml [28]: 93.1%
- remaining at 1 h, 1 ug/ml [29]: 92.4%
- remaining at 2 h, 1 ug/ml [30]: 92.5%
- remaining at 4 h, 1 ug/ml [31]: 92.6%
- remaining at 24 h, 1 ug/ml [32]: 92.3%
- remaining at 10 min, 5 ug/ml [33]: 96.7%
- remaining at 20 min, 5 ug/ml [34]: 96%
- remaining at 0.5 h, 5 ug/ml [35]: 95.8%
- remaining at 0.75 h, 5 ug/ml [36]: 95.2%
- remaining at 1 h, 5 ug/ml [37]: 95.4%
- remaining at 2 h, 5 ug/ml [38]: 95.5%
- remaining at 4 h, 5 ug/ml [39]: 95.2%
- remaining at 24 h, 5 ug/ml [40]: 95.5%
- half-life [41]: 2.82 h
- AUC [42]: 367.6 ng·h/mL
- AUCt [43]: 2280.12 ng·h/mL
- Activity [44]: Active
- survival at 7.5 mg/kg [45]: 50%
- survival at 15 mg/kg [46]: 66%
